Test results taken from patent US12274688B2, “Drug-loaded mesoporous silica nanoparticle for prevention and treatment of brain cancers or brain metastases” (NANO TARGETING & THERAPY BIOPHARMA INC, priority 2022, dated 2025).

Key:
[1] = test system: TMZ-resistant glioma cells (U87MG-R); test: Orthotopic TMZ-resistant brain tumor mouse model (survival, tumor size)
Description: TMZ-resistant glioma cells (U87MG-R) were cultured at 37° C. in a humidified 5% CO2 atmosphere in Dulbecco's Modified Eagle Medium (DMEM) supplemented with 10% fetal bovine serum and 100 ug/mL penicillin/streptomycin. NOD-SCID male mice (8-week-old) were purchased from BioLASCO Taiwan Co. Ltd. For intracranial transplantation, an experimental procedure was performed under sterile conditions. For TMZ-resistant glioblastoma transplantation, a skull burr hole was created in the right frontal brain area. Cells (2×10^5, or five microliters of TMZ-resistant glioma cell suspension (U87MG-R, 6×10^5 cells/5 μL) were injected into the cortex at a depth of 3 mm using stereotactic guidance and a microprocessor single syringe (Harvard Apparatus, Holliston, MA, USA).
(§1) The administration frequency was twice per week until the end of the study. DTX, CTX and PBS were intravenously (IV) injected and TMZ was intraperitoneally (IP) injected into mice. To assess overall survival, mice were monitored up to the point of spontaneous death or approaching moribund status.
Body weight and survival time of animals were monitored up to the point of spontaneous death.

[2] = Toxicity/tolerability in mice transplanted with TMZ-resistant brain tumors; conditions: for Survival of mice to the end of the testing period: 10 or 20 mg/kg IV with TMZ 10 mg/kg, testing period (15)/19 days; for Toxicity (body weight decrease, low survival rate): dose of 10 mg/kg or above IV, with TMZ 10 mg/kg IP
Excerpt: (§2) To evaluate the toxicity of DTX and CTX and the efficacy of direct administration of DTX and CTX on treating TMZ resistant brain tumors, 36 mice transplanted with TMZ-resistant brain tumors were used in the experiments, divided into six groups, each group having six mice; details of dosage are noted in Table 7 below:
as §1

[3] = mouse, in vivo, iv
Excerpt: as §2, §1

[4] = 10 mg/kg IV + TMZ 10 mg/kg IP, twice per week
[5] = 20 mg/kg IV + TMZ 10 mg/kg IP, twice per week
[6] = PBS IV + TMZ 10 mg/kg IP, twice per week

SMILES | Median Survival Time (days after 1st injection) [1, 4] | Median Survival Time (days after implantation of tumor cells) [1, 4] | Median Survival Time (days after 1st injection) [1, 5] | Median Survival Time (days after implantation of tumor cells) [1, 5] | Survival of mice to the end of the testing period [2] | Toxicity (body weight decrease, low survival rate) [2] | Signs of toxicity [3] | Median Survival Time (days after 1st injection) [1, 6] | Median Survival Time (days after implantation of tumor cells) [1, 6] | Median Survival Time (days after implantation of tumor cells) ([1]; Table 9: PBS + TMZ (10 mg/kg)) | Median Survival Time (days after implantation of tumor cells) ([1]; Table 10: PBS + TMZ (10 mg/kg)) | Toxicity of direct administration ([2]; dose of 5 mg/kg or higher)
CC(=O)O[C@@]12CO[C@@H]1C[C@H](O)[C@@]1(C)C(=O)[C@H](O)C3=C(C)[C@@H](OC(=O)[C@H](O)[C@@H](NC(=O)OC(C)(C)C)c4ccccc4)C[C@@](O)([C@@H](OC(=O)c4ccccc4)[C@H]21)C3(C)C [DTX, docetaxel] | 15 days | 19 days | 11 days | 15 days | all mice died before the end of the testing period | high toxicity | immobility, interaction deficits, and more body weight loss | – | – | – | – | –
Cn1nnc2c(C(N)=O)ncn2c1=O [TMZ, temozolomide] | – | – | – | – | – | – | – | 23 days | 27 days | 27 [26.5] days | 27 [26.5] days | –
CO[C@H]1C(=O)[C@]2(C)[C@@H](OC)C[C@H]3OC[C@@]3(OC(C)=O)[C@H]2[C@H](OC(=O)c2ccccc2)[C@]2(O)C[C@H](OC(=O)[C@H](O)[C@@H](NC(=O)OC(C)(C)C)c3ccccc3)C(C)=C1C2(C)C [CTX, cabazitaxel] | 11 days | 15 days | 8 days | 12 days | all mice died before the end of the testing period | high toxicity | – | – | – | – | – | high toxicity
